These are literature values, as cited in patent US20030045478A1, “Gamma-ketoacid dipeptide derivatives as inhibitors of caspase-3” (priority 2000, published 2003).

For orientation: pKi means the negative decadic logarithm of the Ki, by convention in mol/L.

The target of one data set is T1, caspase-1 (Homo sapiens, UniProt P29466).
T1 sequence (P29466 120-297 limits assumed): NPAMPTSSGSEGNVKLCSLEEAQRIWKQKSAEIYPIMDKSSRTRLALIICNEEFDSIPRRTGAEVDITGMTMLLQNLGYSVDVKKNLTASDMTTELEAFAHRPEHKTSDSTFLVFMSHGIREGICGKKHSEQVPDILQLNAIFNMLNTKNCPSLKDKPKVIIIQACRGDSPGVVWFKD
T1 sequence (P29466 317-404 limits assumed): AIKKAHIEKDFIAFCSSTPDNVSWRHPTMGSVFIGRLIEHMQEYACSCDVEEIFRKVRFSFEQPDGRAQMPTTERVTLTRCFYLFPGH

The target of a further data set is T2, caspase-3 (Homo sapiens, UniProt P42574).
T2 sequence (P42574 29-175 limits assumed): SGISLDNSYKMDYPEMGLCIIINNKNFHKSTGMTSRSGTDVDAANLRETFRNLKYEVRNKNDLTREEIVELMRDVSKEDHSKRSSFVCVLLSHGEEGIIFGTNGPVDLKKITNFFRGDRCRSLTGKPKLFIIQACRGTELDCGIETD
T2 sequence (P42574 176-277 limits assumed): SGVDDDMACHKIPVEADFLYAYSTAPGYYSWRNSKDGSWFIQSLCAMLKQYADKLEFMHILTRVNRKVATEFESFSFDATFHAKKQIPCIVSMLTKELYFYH

pKi: −log10 of the molar value.

Turning to Ac-YVAD-CHO, the negative logarithm of the Ki (pKi) on caspase-1 was > 9.00; on caspase-3, 4.92.
